What is called IC50 is the point on the concentration scale where inhibition reaches its midpoint. Read a high IC50 as weaker potency in that assay. One may read the inhibition in vivo as the drop in the measured response relative to a control, in per cent. A high value points to a strong effect.

The structures appear in SMILES notation. Structures can show the parent of a compound that is named as a salt.

The values that follow come from patent US9676714B2, “Sulfonylindole derivatives and method for preparing the same” (Daewoong Pharmaceutical Co., Ltd., priority 2013, dated 2017).

For assay [1], the target named is T1, proton pump (H+/K+-ATPase) (Sus scrofa, UniProt P19156).
T1 construct: Gastric vesicles were prepared from hog stomach via centrifugal separation; from tissue; host or cells: hog stomach (gastric vesicles, method of Rabon et al. 1988)
The assay is described as follows: Measurement of inhibitory effects on proton pump (H+/K+-ATPase) activities. In kind it is biochemical. Particulars: hog gastric vesicles, K+-specific H+/K+-ATPase activity, Tris-HCl buffer pH 7.4, 37° C. for 40 minutes, malachite green Pi readout. In outline:
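Hog gastric vesicles in 60 mmol/l Tris-HCl pH 7.4 with 0.5% DMSO were treated with compounds at room temperature; reaction was started with 10 μl of 10 mmol/l ATP stock. Released Pi was read at 570 nm, K+-specific activity taken as the ±K+ difference. IC50 from 4-parameter logistic fit.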

Assay [2] deals with basal gastric acid secretion. Kind of assay: Inhibitory effect on the basal gastric acid secretion in pylorus-ligated rats (Shay's rat model). The assay is classed as in vivo, Sprague Dawley (SD) rats. The following applies: 5 h, male SD rats, 3 mg/kg/2 ml into the duodenum, five hours after the ligation, total gastric acid secretion vs control group. As to the method: 3) Inhibitory Effect on the Basal Gastric Acid Secretion in Pylorus-Ligated Rats
Assays for determining inhibitory effect of the compounds of the present invention on the basal gastric acid secretion was performed according to Shay's rat model (Shay, H., et al., 1945, gastroenterology, 5, p. 43-61). Male Sprague Dawley (SD) rats with a body weight in the range of 180˜220 g were divided into test (n=5) and control groups (n=5), and fasted for 18 hours with free access to water. Under isoflurane anesthesia, the abdomens of the rats were incised and then the pylorus was ligated. After the ligation, the control groups were administered with only 10% ethanol, 20% polyethylene glycol (PEG) 400, and 10% aqueous Cremophor solution through the duodenum, and the other groups were administered with test compounds suspended in 10% ethanol, 20% PEG 400, and 10% aqueous Cremophor solution at a concentration of 3 mg/kg/2 ml into the duodenum. Five hours after the ligation, the experimental animals were euthanized and their stomach contents were collected. The thus obtained contents were centrifuged at 4,000×g for 10 minutes, and the supernatant was recovered to obtain gastric juice therefrom. The amount of the gastric juice and its pH were measured. The acidity of the gastric juice was determined by 0.1 N-NaOH volume (ueq/mL) for automatic titration of gastric acid to pH 7.0. The total acid output was obtained by multiplying the gastric acidity by the amount of gastric juice. Inhibition Activity (%) of Test Compounds=(total gastric acid secretion in control group−total gastric acid secretion in groups treated with test compounds)/total gastric acid secretion in control group×100

T1 sequence (P19156 whole entry): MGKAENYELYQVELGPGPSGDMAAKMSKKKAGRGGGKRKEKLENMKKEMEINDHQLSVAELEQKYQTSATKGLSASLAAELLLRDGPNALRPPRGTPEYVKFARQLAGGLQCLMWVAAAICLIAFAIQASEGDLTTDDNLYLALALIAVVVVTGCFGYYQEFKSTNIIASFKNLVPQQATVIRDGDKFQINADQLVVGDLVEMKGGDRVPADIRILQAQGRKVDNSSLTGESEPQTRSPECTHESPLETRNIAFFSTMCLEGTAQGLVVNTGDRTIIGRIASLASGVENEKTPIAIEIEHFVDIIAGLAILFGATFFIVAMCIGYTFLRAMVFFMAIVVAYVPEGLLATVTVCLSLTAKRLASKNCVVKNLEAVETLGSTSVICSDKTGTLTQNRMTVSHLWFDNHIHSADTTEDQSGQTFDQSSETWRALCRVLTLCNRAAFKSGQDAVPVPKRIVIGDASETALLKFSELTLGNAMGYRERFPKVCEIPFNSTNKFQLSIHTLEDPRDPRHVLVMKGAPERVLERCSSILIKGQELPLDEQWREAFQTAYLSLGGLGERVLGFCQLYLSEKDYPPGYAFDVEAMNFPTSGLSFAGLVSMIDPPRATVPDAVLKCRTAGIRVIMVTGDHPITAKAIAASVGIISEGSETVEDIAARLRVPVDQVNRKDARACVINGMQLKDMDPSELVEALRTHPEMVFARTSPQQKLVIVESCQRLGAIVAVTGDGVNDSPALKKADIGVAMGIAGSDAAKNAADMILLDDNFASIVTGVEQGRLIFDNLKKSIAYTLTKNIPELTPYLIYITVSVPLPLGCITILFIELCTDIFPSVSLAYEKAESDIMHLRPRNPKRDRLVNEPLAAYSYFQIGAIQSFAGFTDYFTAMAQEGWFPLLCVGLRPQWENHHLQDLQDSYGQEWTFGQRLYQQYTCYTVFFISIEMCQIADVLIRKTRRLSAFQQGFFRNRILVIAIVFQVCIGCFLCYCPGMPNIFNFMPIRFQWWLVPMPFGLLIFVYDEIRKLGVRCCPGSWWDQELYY
T1 sequence (P18434 whole entry partner): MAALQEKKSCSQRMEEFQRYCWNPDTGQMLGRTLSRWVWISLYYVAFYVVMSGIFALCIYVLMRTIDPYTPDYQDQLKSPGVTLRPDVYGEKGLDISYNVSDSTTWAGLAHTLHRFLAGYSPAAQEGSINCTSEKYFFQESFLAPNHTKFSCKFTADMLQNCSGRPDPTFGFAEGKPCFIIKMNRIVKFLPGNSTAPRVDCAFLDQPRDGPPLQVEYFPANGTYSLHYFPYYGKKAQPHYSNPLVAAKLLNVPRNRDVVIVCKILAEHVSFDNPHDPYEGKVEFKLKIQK

In assay [1], `CNCc1cn(S(=O)(=O)c2cccc(Cl)c2)c2cc(Nc3ccc(OC)nc3Cl)ccc12` [Example 160, N-(2-chloro-6-methoxypyridin-3-yl)-1-((3-chlorophenyl)sulfonyl)-3-((methylamino)methyl)-1H-indol-6-amine hydrochloride] registered an IC50 of 290 nM. The inhibition in vivo at 3 mg/kg in assay [2] came to 57%.

In the case of `CNCc1cn(S(=O)(=O)c2cccc(OC(F)F)c2)c2cc(Nc3ccc(OC)nc3Cl)ccc12` [Example 182, N-(2-chloro-6-methoxypyridin-3-yl)-1-((3-(difluoromethoxy)phenyl)sulfonyl)-3-((methylamino)methyl)-1H-indol-6-amine hydrochloride], the IC50 in assay [1] was found to be 390 nM. In addition, at 3 mg/kg the inhibition in vivo in assay [2] was 44%.

In turn, `CNCc1cn(S(=O)(=O)c2cncc(F)c2)c2cc(Nc3ccc(C)cc3F)ccc12` [Example 210, N-(2-fluoro-4-methylphenyl)-1-((5-fluoropyridin-3-yl)sulfonyl)-3-((methylamino)methyl)-1H-indol-6-amine hydrochloride] yielded an IC50 in assay [1] of 370 nM. Also, in assay [2], 3 mg/kg produced 43% inhibition in vivo.

In assay [1], `CNCc1cn(S(=O)(=O)c2cncc(F)c2)c2cc(Nc3ccc(C)cc3Cl)ccc12` [Example 211, N-(2-chloro-4-methylphenyl)-1-((5-fluoropyridin-3-yl)sulfonyl)-3-((methylamino)methyl)-1H-indol-6-amine hydrochloride] yielded an IC50 of 90 nM. Also, in assay [2], the inhibition in vivo at 3 mg/kg turned out to be 43%.

Turning to `CNCc1cn(S(=O)(=O)c2cncc(F)c2)c2cc(Nc3ccc(F)cc3C)ccc12` [Example 212, N-(4-fluoro-2-methylphenyl)-1-((5-fluoropyridin-3-yl)sulfonyl)-3-((methylamino)methyl)-1H-indol-6-amine hydrochloride], in assay [1], the IC50 amounted to 180 nM. For the same molecule, the inhibition in vivo at 3 mg/kg in assay [2] turned out to be 56%.

On to `CNCc1cn(S(=O)(=O)c2cncc(F)c2)c2cc(Nc3ccc(F)cc3Cl)ccc12` [Example 213, N-(2-chloro-4-fluorophenyl)-1-((5-fluoropyridin-3-yl)sulfonyl)-3-((methylamino)methyl)-1H-indol-6-amine hydrochloride], for which the 50% inhibitory concentration (IC50) in assay [1] was determined as 160 nM. This molecule registered an inhibition in vivo at 3 mg/kg in assay [2] of 50%.

`CNCc1cn(S(=O)(=O)c2cncc(F)c2)c2cc(Nc3ccc(OC)cc3OC(F)(F)F)ccc12` [Example 214, 1-((5-fluoropyridin-3-yl)sulfonyl)-N-(4-methoxy-2-(trifluoromethoxy)phenyl)-3-((methylamino)methyl)-1H-indol-6-amine hydrochloride] registered an IC50 in assay [1] of 1690 nM. The same molecule displayed an inhibition in vivo at 3 mg/kg in assay [2] of 75%.

`CNCc1cn(S(=O)(=O)c2cncc(F)c2)c2cc(Nc3ccc(OC(F)(F)F)cc3OC)ccc12` [Example 216, 1-((5-fluoropyridin-3-yl)sulfonyl)-N-(2-methoxy-4-(trifluoromethoxy)phenyl)-3-((methylamino)methyl)-1H-indol-6-amine hydrochloride] came in with an IC50 in assay [1] of 1500 nM. This molecule gave an inhibition in vivo at 3 mg/kg in assay [2] of 69%.

Regarding `CNCc1cn(S(=O)(=O)c2cncc(F)c2)c2cc(Nc3ccc(OC)nc3Cl)ccc12` [Example 217, N-(2-chloro-6-methoxypyridin-3-yl)-1-((5-fluoropyridin-311)sulfonyl)-3-((methylamino)methyl)-1H-indol-6-amine hydrochloride], 540 nM corresponded to half-maximal inhibition in assay [1] (IC50). The same molecule came in with an inhibition in vivo at 3 mg/kg in assay [2] of 44%.

For the molecule `CNCc1cn(S(=O)(=O)c2cncc(F)c2)c2cc(Nc3ccc(C(F)(F)F)nc3Cl)ccc12` [Example 218, N-(2-chloro-6-(trifluoromethyl)pyridin-3-yl)-1-((5-fluoropyridin-3-yl)sulfonyl)-3-((methylamino)methyl)-1H-indol-6-amine hydrochloride], the IC50 in assay [1] amounted to 2920 nM. Besides, in assay [2], at 3 mg/kg the inhibition in vivo was 49%.

In turn, `CNCc1cn(S(=O)(=O)c2cccc(C)c2)c2cc(Nc3ccc(C)cc3F)ccc12` [Example 226, N-(2-fluoro-4-methylphenyl)-3-((methylamino)methyl)-1-(m-tolylsulfonyl)-1H-indol-6-amine hydrochloride] came in with a half-inhibitory concentration (IC50) in assay [1] of 1160 nM. The molecule also yielded an inhibition in vivo at 3 mg/kg in assay [2] of 44%.

`CNCc1cn(S(=O)(=O)c2cccnc2)c2cc(Cc3ccc(C)cc3Cl)ccc12` [Example 267, 1-(6-(2-chloro-4-methylbenzyl)-1-(pyridin-3-ylsulfonyl)-1H-indol-3-yl)-N-methylmethanamine hydrochloride]: half-maximal inhibition in assay [1] (IC50) required 230 nM. Also, in assay [2], testing at 3 mg/kg gave an inhibition in vivo of 44%.

Molecule `CNCc1cn(S(=O)(=O)c2cccnc2)c2cc(Cc3ccc(C)cc3)ccc12` [Example 270, N-methyl-1-(6-(4-methylbenzyl)-1-(pyridin-3-ylsulfonyl)-1H-indol-3-yl)methanamine hydrochloride] gave an IC50 in assay [1] of 790 nM. This molecule also came in with an inhibition in vivo at 3 mg/kg in assay [2] of 38%.

As for `CNCc1cn(S(=O)(=O)c2cccnc2)c2cc(Cc3ccc(C)cc3F)ccc12` [Example 272, 1-(6-(2-fluoro-4-methylbenzyl)-1-(pyridin-3-ylsulfonyl)-1H-indol-3-yl)-N-methylmethanamine hydrochloride], in assay [1], the midpoint of inhibition, the IC50, lay at 500 nM. This molecule also gave an inhibition in vivo at 3 mg/kg in assay [2] of 41%.

`CNCc1cn(S(=O)(=O)c2cccnc2)c2cc(Cc3ccc(F)cc3Cl)ccc12` [Example 273, 1-(6-(2-chloro-4-fluorobenzyl)-1-(pyridin-3-ylsulfonyl)-1H-indol-3-yl)-N-methylmethanamine hydrochloride]: in assay [1], the IC50 is 370 nM. The same molecule displayed an inhibition in vivo at 3 mg/kg in assay [2] of 32%.

Regarding `CNCc1cn(S(=O)(=O)c2cccnc2)c2cc(Cc3ccc(C)c(F)c3F)ccc12` [Example 286, 1-(6-(2,3-difluoro-4-methylbenzyl)-1-(pyridin-3-ylsulfonyl)-1H-indol-3-yl)-N-methylmethanamine hydrochloride], the IC50 in assay [1] worked out at 390 nM. The molecule also registered an inhibition in vivo at 3 mg/kg in assay [2] of 35%.

Turning to `CNCc1cn(S(=O)(=O)c2cccc(C(F)(F)F)c2)c2cc(N(C)c3ccc(OC)nc3Cl)ccc12` [Example 315, N-(2-chloro-6-methoxypyridin-3-yl)-N-methyl-3-((methylamino)methyl)-1-((3-(trifluoromethyl)phenyl)sulfonyl)-1H-indol-6-amine hydrochloride], half-maximal inhibition in assay [1] (IC50) required 2950 nM. Further, testing at 3 mg/kg in assay [2] gave an inhibition in vivo of 45%.

In turn, `CNCc1cn(S(=O)(=O)c2cccc(F)c2)c2cc(Nc3ccc(Cl)cc3Cl)cnc12` [Example 342, N-(2,4-dichlorophenyl)-1-((3-fluorophenyl)sulfonyl)-3-((methylamino)methyl)-1H-pyrrolo[3,2-b]pyridin-6-amine hydrochloride] returned an IC50 in assay [1] of 400 nM. The molecule also gave an inhibition in vivo at 3 mg/kg in assay [2] of 41%.

Take `CNCc1cn(S(=O)(=O)c2cccc(F)c2)c2cc(Nc3ccc(OC(F)(F)F)cc3OC)ncc12` [Example 356, 1-((3-fluorophenyl)sulfonyl)-N-(2-methoxy-4-(trifluoromethoxy)phenyl)-3-((methylamino)methyl)-1H-pyrrolo[3,2-c]pyridin-6-amine hydrochloride]: in assay [1], the IC50 came to 2000 nM. In addition, the inhibition in vivo at 3 mg/kg in assay [2] worked out at 63%.
